This assay deals with Pseudomonas aeruginosa. Kind of assay: burn wound infection treated with Nu-3 applied with glycerol polysiloxanes. It counts as in vivo. The note with it: burn wound infections. The source says: A particularly important medical treatment application is the healing effect of some of the hydrophilic substituted polydialkoxysiloxanes on radiation burn injuries. Skin irritation and burning is common in cases where patients undergo radiation treatment associated with certain cancers. Topical application of glycerol substituted polydialkoxysilane compositions relieves pain and accelerates healing compared to treatment with commonly used burn or cortisone ointments. […] Nubiotics are a new class of antibiotic agents with broad spectrum activity.

Experimental findings from patent US8552135B2, “Substituted polyalkoxysiloxane compositions and methods of use” (One Unlimited, Inc., priority 2006, dated 2013) are described below.

Take `CCCCOP(=O)(O)OC[C@H]1O[C@@H](n2cc(C)c(=O)[nH]c2=O)C[C@@H]1OP(=O)(O)O` [Nu-3, butyl-phosphate-5′-thymidine-3′-phosphate]: the “antibacterial effectiveness of Nu-3 when applied with glycerol polysiloxanes” value is recorded as “only a slight decrease in antibacterial effectiveness”.
